# Experimental data taken from patent US5541187A, “6-heterocycyclyl pyrazolo[3,4-d]pyrimidin-4-ones and compositions and method of use thereof” (Sterling Winthrop Inc., priority 1993, dated 1996).
# “And” between values parts separate entries of the source, which are not always exact repeats. Equal values may be shown once.
# System: cGMP-PDE I
# Assay: cGMP-PDE I inhibitory activity (cyclic nucleotide hydrolysis, isolated PDE isozyme)
# Format: biochemical, various animal species and man
# Conditions: for IC50: values marked * are from two separate experimental runs
# Description: Multiple isozymic forms of cyclic nucleotide phosphodiesterase (PDE) have been identified in mammalian cells. […] Elevation of intracellular cGMP in vascular smooth muscle triggers a cascade of events that leads to a reduction in muscle tone while elevations in renal tubule cell cGMP stimulates natriuresis and diuresis. Vascular smooth muscle and renal cells contain a phosphodiesterase isozyme that has a low Km (1 μM) for the hydrolysis of cGMP. This isozyme has been referred to as the cGMP-PDE or cGMP-PDE I since it elutes from an anion-exchange sepharose resin in the first peak of PDE activity at a sodium acetate concentration between 150-200 mM. Thus inhibition of the cGMP-PDE isozyme is a viable subcellular mechanism by which increases in cGMP can produce a reduction in total peripheral resistance and a stimulation of natriuresis and diuresis. The development of cGMP-PDE inhibitors represents an approach for the discovery of agents useful for treating heart failure and hypertension. For example, compounds having high inhibitory potency for the cGMP-PDE are expected to lower blood pressure and induce natriuresis and diuresis.
# The cGMP-PDE and other PDE isozymes were isolated from cardiovascular tissues (heart and aorta) of various animal species and man by anion-exchange and affinity chromatography as described by Silver et al., Sec. Messeng. Phos. 13:13-25, 1991; PDE activity, in the presence and absence of test compounds was determined essentially as described by Thompson et al., Adv. Cyclic Nucleotide Res. 10:69-92. To determine the potency and selectivity of compounds as PDE inhibitors, compounds are screened for their effect on cyclic nucleotide hydrolysis at 10 μM. If ≥50% inhibition of PDE activity is observed, an IC50 value (concentration of compound causing 50% reduction in PDE activity) and corresponding 95% confidence intervals are generated. The IC50 values are calculated from concentration-response curves as described by Tallarida and Murray, Manual of Pharmacologic Calculations with Computer Programs, Procedure 8, Graded Dose-response, pp. 14-19, Springer-Verlag, N.Y., 1981.
IC50,Structure (SMILES),Percent Inhibition cGMP-PDE I (1 μM) [%],also measured
550 nM,Cc1nn(Cc2ccccc2Cl)c2nc(-c3ccncc3)[nH]c(=O)c12 [Example 82],,
,"CCc1[nH]n(C2CCCC2)c2nc(-c3cccc(C)n3)nc(=O)c1-2 [Example 2f, 1-cyclopentyl-3-ethyl-6-(6-methyl-2-pyridyl) -pyrazolo-[3,4-d]pyrimidin-4-one]",7,Percent Inhibition cGMP-PDE I (10 μM): 53%
240 nM,"CCc1[nH]n(C2CCCC2)c2nc(-c3ccnc(-n4ccnc4)c3)nc(=O)c1-2 [Example 121c, 1-Cyclopentyl-3-ethyl-6-[2-(1-imidazolyl)-4-pyridyl]pyrazolo[3,4-d]pyrimidin-4-one]",68,Percent Inhibition cGMP-PDE I (0.1 μM): 11%
,Cc1nn(CCCCCCCCC(=O)O)c2nc(-c3ccncc3)[nH]c(=O)c12 [Example 78],54,
190 nM,"CCc1[nH]n(C2CCCC2)c2nc(-c3ccnc4ccccc34)nc(=O)c1-2 [Example 7c, 1-Cyclopentyl-3-ethyl-6-(4-quinolinyl)-pyrazolo[3,4-d]pyrimidin-4-one]",,
1900 nM,"Cc1[nH]n(C2CCC2)c2nc(-c3ccncc3)nc(=O)c1-2 [Example 102, 1-Cyclobutyl-3-methyl-6-(4-pyridyl)-pyrazolo-[3,4-d]pyrimidin-4-one]",,
680 nM,CC(C)(C)n1ncc2c(=O)[nH]c(-c3ccncc3)nc21 [Example 92],,
,"Cc1[nH]n(Cc2cc([N+](=O)[O-])ccc2Cl)c2nc(-c3ccncc3)nc(=O)c1-2 [Example 106, 1-(2-Chloro-5-nitrophenylmethyl)-3-methyl-6-(4-pyridyl)pyrazolo[3,4-d]pyrimidin-4-one]",24,Percent Inhibition cGMP-PDE I (10 μM): 63%
,Cc1nn(CC2CCCC2)c2nc(-c3ccncc3)[nH]c(=O)c12 [Example 89],17,Percent Inhibition cGMP-PDE I (10 μM): 77%
200 nM,Cc1nn(Cc2cccc(Cl)c2)c2nc(-c3ccncc3)[nH]c(=O)c12 [Example 81],,
,Cc1nn(Cc2ccc(C#N)cc2)c2nc(-c3ccncc3)[nH]c(=O)c12 [Example 85],,Percent Inhibition cGMP-PDE I (10 μM): 42%
,"CCc1[nH]n(C(C)(C)C)c2nc(-c3ccncc3OC)nc(=O)c1-2 [Example 136, 1-tert-Butyl-3-ethyl-6-(3-methoxy-4-pyridyl)pyrazolo[3,4-d]pyrimidin-4-one]",73,Percent Inhibition cGMP-PDE I (0.01 μM): 28%; Percent Inhibition cGMP-PDE I (0.1 μM): 39%
,"CCc1[nH]n(C2CCCC2)c2nc(-n3ccnc3)nc(=O)c1-2 [Example 122d, 1-Cyclopentyl-3-ethyl-6-(1-imidazolyl)pyrazolo[3,4-d]pyrimidin-4-one]",16,Percent Inhibition cGMP-PDE I (10 μM): 46%
480 nM,CCc1nn(C(C)(C)C)c2nc(-c3ccncc3)[nH]c(=O)c12 [Example 94],,
280 nM,"CCc1[nH]n(C2CCCC2)c2nc(C3CCNc4ccccc43)nc(=O)c1-2 (stereo not shown) [Example 9, 1-Cyclopentyl-3-ethyl-6-(1,2,3,4-tetrahydro-4-quinolinyl)-pyrazolo[3,4-d]pyrimidin-4-one]",,
,CCCCCCCCn1nc(C)c2c(=O)[nH]c(-c3ccncc3)nc21 [Example 88],32,
,"N#Cc1[nH]n(C2CCCC2)c2nc(-c3ccncc3)nc(=O)c1-2 [Example 100, 1-Cyclopentyl-3-cyano-6-(4-pyridyl)-pyrazolo-[3,4-d]pyrimidin-4-one]",9,Percent Inhibition cGMP-PDE I (10 μM): 35%
2700 nM,Cc1nn(CCCCCC(=O)O)c2nc(-c3ccncc3)[nH]c(=O)c12 [Example 80],,
,"CCc1nn(C2CCCC2)c2nc(C3CCN(C)c4ccccc43)[nH]c(=O)c12 (stereo not shown) [Example 10b, 1-cyclopentyl-3-ethyl-6-(1,2,3,4-tetrahydro-4-N-methyl-quinolinyl)-pyrazolo-[3,4-d]pyrimidin-4-one]",62,Percent Inhibition cGMP-PDE I (0.1 μM): 24%
,"CCc1nn(C2CCCC2)c2nc(-c3cccn4ccnc34)[nH]c(=O)c12 [Example 114c, 1-cyclopentyl-3-ethyl-6-(8-imidazo[1,2-a]pyridine)pyrazolo[3,4-d]pyrimidin-4-one methanesulfonate]",5,Percent Inhibition cGMP-PDE I (10 μM): 52%

IC50,Structure (SMILES),Percent Inhibition cGMP-PDE I (1 μM) [%],also measured
660 nM,"CCc1[nH]n(C2CCCC2)c2nc(-c3ccnc(C)c3)nc(=O)c1-2 [Example 118, 1-Cyclopentyl-3-ethyl-6-(2-methyl-4-pyridyl)pyrazolo[3,4-d]pyrimidin-4-one]",61,Percent Inhibition cGMP-PDE I (0.1 μM): 22%
,"Cc1[nH]n(C2CCCC2C)c2nc(-c3ccncc3)nc(=O)c1-2 (stereo not shown) [Example 1e, 1-(2-Methylcyclopentyl)-3-methyl-6-(4-pyridyl)pyrazolo [3,4-d]pyrimidin-4-one]",59,Percent Inhibition cGMP-PDE I (0.1 μM): 23%
,"Cc1[nH]n(C2CCCC2)c2nc(C3CCN(C(=O)C(F)(F)F)CC3)nc(=O)c1-2 [Example 116, 1-Cyclopentyl-3-methyl-6-(1-trifluoroacetyl-4-piperidinyl)pyrazolo[3,4-d]pyrimidin-4-one]",34,
,"CC(=O)N1CCC(c2nc3n(C4CCCC4)[nH]c(C)c-3c(=O)n2)CC1 [Example 115, 1-Cyclopentyl-3-methyl-6-(1-acetyl-4-piperidinyl)pyrazolo[3,4-d]pyrimidin-4-one]",6,Percent Inhibition cGMP-PDE I (10 μM): 51%
780 nM,"CCc1[nH]n(C2CCCC2)c2nc(-c3ccc4nccn4c3)nc(=O)c1-2 [Example 16c, 1-Cyclopentyl-3-ethyl-6-(6-imidazo[1,2-a]pyridinyl)pyrazolo[3,4-d]pyrimidin-4-one]",69,Percent Inhibition cGMP-PDE I (0.1 μM): 35%
1780 nM,"Cc1nn(C2CCOC2)c2nc(-c3ccncc3)[nH]c(=O)c12 (stereo not shown) [Example 101, 1-(3-Tetrahydrofuranyl)-3-methyl-6-(4-pyridyl)-pyrazolo-[3,4-d]pyrimidin-4-one-1/4 hydrate]",,
,"CCc1[nH]n(C2CCCC2)c2nc(-c3ccnc(N4CCOCC4)c3)nc(=O)c1-2 [Example 129c, 1-Cyclopentyl-3-ethyl-6-(2-(4-morpholinyl)-4-pyridyl)pyrazolo[3,4-d]pyrimidin-4-one]",64,Percent Inhibition cGMP-PDE I (0.1 μM): 35%
690 nM,"Cc1[nH]n(C2CCCC2)c2nc(-c3cccc4cccnc34)nc(=O)c1-2 [Example 12c, 1-Cyclopentyl-3-methyl-6-(8-quinolinyl)-pyrazolo-[3,4-d]pyrimidin-4-one]",,
,"CCN(CC)CCCn1nc(C)c2c(=O)[nH]c(-c3ccncc3)nc21 [Example 99, 1-(3-Diethylaminopropyl)-3-methyl-6-(4-pyridyl)pyrazolo[3,4-d]pyrimidin-4-one. 1/2 hydrate]",0,Percent Inhibition cGMP-PDE I (10 μM): 12%
460 nM and 560 nM,"Cc1nn(C2CCCCC2)c2nc(-c3ccncc3)[nH]c(=O)c12 [Example 3e, 1-Cyclohexyl-3-methyl-6-(4-pyridyl)-pyrazolo[3,4-d]pyimidin-4-one]",,
1800 nM,O=c1[nH]c(-c2ccncc2)nc2c1c(Br)nn2C1CCCC1 [Example 73],,
670 nM,O=c1[nH]c(-c2ccncc2)nc2c1c(C(F)(F)F)nn2C1CCCC1 [Example 96],,
,"Cc1[nH]n(C2CCCC2)c2nc(-c3cc[nH]c(=O)c3)nc(=O)c1-2 [Example 126b, 1-Cyclopentyl-3-methyl-6-(2-oxo-4-pyridyl)pyrazolo[3,4-d]pyrimidin-4-one]",32,Percent Inhibition cGMP-PDE I (0.1 μM): 0%
,O=c1[nH]c(-c2ccncc2)nc2c1c([N+](=O)[O-])nn2C1CCCC1 [Example 74],0,Percent Inhibition cGMP-PDE I (10 μM): 32%
,Cc1n[nH]c2nc(-c3ccncc3)[nH]c(=O)c12 [Example 76],0,Percent Inhibition cGMP-PDE I (10 μM): 24%
,"COc1cnccc1-c1nc2n(C(C)(C)C)[nH]c(Cc3ccncc3)c-2c(=O)n1 [Example 134b, 1-tert-Butyl-3-(4-pyridylmethyl)-6-(3-methoxy-4-pyridyl)pyrazolo[3,4-d]pyrimidin-4-one]",,Percent Inhibition cGMP-PDE I (0.01 μM): 35%; Percent Inhibition cGMP-PDE I (0.1 μM): 55%
12400 nM,"Cc1[nH]n(C2CCCO2)c2nc(-c3ccncc3)nc(=O)c1-2 (stereo not shown) [Example 104, 1-(2-tetrahydrofuranyl)-3-methyl-6-(4-pyridyl)-pyrazolo-[3,4-d]pyrimidin-4-one]",,
2300 nM,Cc1nn(C2CCCC2O)c2nc(-c3ccncc3)[nH]c(=O)c12 (stereo not shown) [Example 17e],,
580 nM,"CCc1[nH]n(C2CCCC2)c2nc(-c3ccnc(Cl)c3)nc(=O)c1-2 [Example 125b, 1-Cyclopentyl-3-ethyl-6-(2-chloro-4-pyridyl)pyrazolo[3,4-d]pyrimidin-4-one]",59,Percent Inhibition cGMP-PDE I (0.1 μM): 27%
